Data from patent US9023393B2, “Pharmaceutical compositions of adsorbates of amorphous drugs and lipophilic microphase-forming materials” (Bend Research, Inc., priority 2003, dated 2015).
Each block holds one compound with its values, some of them ahead of it.

Assays:
Format in all cases: physicochemical
[1] = In vitro dissolution test of Drug 2 compositions in PBS pH 6.5, room temperature, 0.45 μm syringe filter, UV; 50 μg/mL if all drug dissolved
Description: Example 3 consisted of Adsorbate 2 administered into solution with a lipophilic microphase-forming material. At time 0, a 6.656 mg sample of Adsorbate 2 was added to 40 mL of phosphate buffered saline (PBS) at pH 6.5 and 290 mOsm/kg, containing 1 mg/mL of PEG 6000 distearate (the concentration of drug would have been 50 μg/mL, if all of the drug had dissolved). The test solution was stirred at room temperature in a syringe equipped with a Gelman Acrodisc 13 CR 0.45 μm PTFE filter, as described for Example 1. Samples were collected and analyzed using UV to determine the concentration of Drug 2 in solution.
Control 5 consisted of Adsorbate 2 administered into PBS without the lipophilic microphase-forming material, and a sufficient amount of sample was added so that the concentration of drug would have been 50 μg/mL, if all of the drug had dissolved.
Control 6 consisted of crystalline Drug 2 administered into PBS containing PEG 6000 Distearate, and a sufficient amount of Drug 2 was added so that the concentration would have been 50 μg/mL, if all of the drug had dissolved.
Control 7 consisted of crystalline Drug 2 administered into PBS without the lipophilic microphase-forming material, and a sufficient amount of sample was added so that the concentration of drug would have been 50 μg/mL, if all of the drug had dissolved.

[2] = In vitro dissolution test of Drug 3 compositions (Example 4 in MOPS buffer pH 7.4, controls given as PBS), room temperature, 0.45 μm syringe filter, UV; 50 μg/mL if all drug dissolved
Description: Example 4 consisted of Adsorbate 3 administered into solution with a lipophilic microphase-forming material. At time 0, an 8.02 mg sample of Adsorbate 3 was added to 40 ml of 50 mM 3-(4-morpholino propane sulfonic acid) sodium salt (MOPS) buffer at pH 7.4, containing 5 mg/mL of Tween 80 (available from ICI Americas Inc); the concentration of drug would have been 50 μg/mL, if all of the drug had dissolved. The test solution was stirred at room temperature in a syringe equipped with a Gelman Acrodisc 13 CR 0.45 μm PTFE filter, as described for Example 1. Samples were collected and analyzed using UV to determine the concentration of Drug 3 in solution.
Control 8 consisted of Adsorbate 3 administered into PBS without the lipophilic microphase-forming material, and a sufficient amount of sample was added so that the concentration of drug would have been 50 μg/mL, if all of the drug had dissolved.
Control 9 consisted of crystalline Drug 3 administered into PBS containing Tween 80, and a sufficient amount of Drug 3 was added so that the concentration would have been 50 μg/mL, if all of the drug had dissolved.
Control 10 consisted of crystalline Drug 3 administered into PBS without the lipophilic microphase-forming material, and a sufficient amount of sample was added so that the concentration of drug would have been 50 μg/mL, if all of the drug had dissolved.

[3] = In vitro dissolution test of Drug 1 compositions in PBS pH 6.5, room temperature, 0.45 μm syringe filter, UV; 50 μg/mL if all drug dissolved
Description: Example 1 consisted of Adsorbate 1 administered in solution with a lipophilic microphase-forming material. At time 0, a 4 mg sample of Adsorbate 1 was added to 40 mL phosphate buffered saline (PBS) at pH 6.5 and 290 mOsm/kg, containing 1 mg/mL of the lipophilic microphase-forming material Cremaphor RH40 (available from BASF of Mount Olive, N.J.). The concentration of drug would have been 50 μg/mL, if all of the drug had dissolved. The test solution was stirred at room temperature in a syringe equipped with a Gelman Acrodisc 13 CR 0.45 μm PTFE filter. At each sample time, 1 to 2 mL test solution was pushed through the filter and analyzed using UV to determine the concentration of Drug 1 in solution. Samples were collected at 0.5, 1, 2, 3, 5, 10, 15, 20, 30, 45, 60, 90, 120, 150, 250 and 1200 minutes.
(§1) Control 1 consisted of Adsorbate 1 administered into PBS without the lipophilic microphase-forming material, and a sufficient amount of adsorbate was added so that the concentration of drug would have been 50 μg/mL, if all of the drug had dissolved. An in vitro dissolution test was performed with Control 1 using the procedures outlined for Example 1 and the results are shown in Table 1.
Control 2 consisted of crystalline Drug 1 administered into PBS containing 1 mg/mL of the lipophilic microphase-forming material Cremophor RH40, and a sufficient amount of Drug 1 was added so that the concentration would have been 50 μg/mL, if all of the drug had dissolved. An in vitro dissolution test was performed with Control 2 using the procedures outlined for Example 1 and the results are shown in Table 1.
as §1, with “Control 3” for “Control 1”, “of crystalline Drug” for “of Adsorbate”, “of crystalline Drug 1” for “of adsorbate”
Example 2 consisted of Adsorbate 1 administered in solution with a different lipophilic microphase-forming material. At time 0, a 4 mg sample of Adsorbate 1 was added to 40 mL phosphate buffered saline (PBS) at pH 6.5 and 290 mOsm/kg, containing 1 mg/mL of 5/2 (wt/wt) Cremaphor RH40/Capmul MCM (available from Abitec of Janesville, Wis.); the concentration of drug would have been 50 μg/mL, if all of the drug had dissolved. The test solution was stirred at room temperature in a syringe equipped with a Gelman Acrodisc 13 CR 0.45 μm PTFE filter, as described for Example 1. Samples were collected and analyzed using UV to determine the concentration of Drug 1 in solution.
Control 4 consisted of crystalline Drug 1 administered into PBS containing 5/2 (wt/wt) Cremophor RH40/Capmul MCM, and a sufficient amount of Drug 1 was added so that the concentration would have been 50 μg/mL, if all of the drug had dissolved.

AUC90 ([1]; Drug 2, area under the aqueous concentration versus time curve after 90 minutes): <45 µg·min/mL
AUC ([1]; Drug 2, time 0 min): 0 µg·min/mL
AUC ([1]; Drug 2, time 1 min): <1 µg·min/mL
AUC ([1]; Drug 2, time 2 min): <1 µg·min/mL
AUC ([1]; Drug 2, time 3 min): <2 µg·min/mL
AUC ([1]; Drug 2, time 5 min): <3 µg·min/mL
AUC ([1]; Drug 2, time 10 min): <5 µg·min/mL
AUC ([1]; Drug 2, time 15 min): <8 µg·min/mL
AUC ([1]; Drug 2, time 20 min): <10 µg·min/mL
AUC ([1]; Drug 2, time 30 min): <15 µg·min/mL
AUC ([1]; Drug 2, time 45 min): <23 µg·min/mL
AUC ([1]; Drug 2, time 64 min): <32 µg·min/mL
AUC ([1]; Drug 2, time 90 min): <45 µg·min/mL
AUC ([1]; Drug 2, time 160 min): <80 µg·min/mL
AUC ([1]; Drug 2, time 1200 min): <600 µg·min/mL
MDC90 ([1]; maximum concentration of Drug 2 in solution during the first 90 minutes): <0.5 µg/mL
Drug 2 Concentration ([1]; time 0 min): <0.5 µg/mL
Drug 2 Concentration ([1]; time 1 min): <0.5 µg/mL
Drug 2 Concentration ([1]; time 2 min): <0.5 µg/mL
Drug 2 Concentration ([1]; time 3 min): <0.5 µg/mL
Drug 2 Concentration ([1]; time 5 min): <0.5 µg/mL
Drug 2 Concentration ([1]; time 10 min): <0.5 µg/mL
Drug 2 Concentration ([1]; time 15 min): <0.5 µg/mL
Drug 2 Concentration ([1]; time 20 min): <0.5 µg/mL
Drug 2 Concentration ([1]; time 30 min): <0.5 µg/mL
Drug 2 Concentration ([1]; time 45 min): <0.5 µg/mL
Drug 2 Concentration ([1]; time 64 min): <0.5 µg/mL
Drug 2 Concentration ([1]; time 90 min): <0.5 µg/mL
Drug 2 Concentration ([1]; time 160 min): <0.5 µg/mL
Drug 2 Concentration ([1]; time 1200 min): <0.5 µg/mL
SMILES: CC[C@@H]1C[C@H](N(Cc2cc(C(F)(F)F)cc(C(F)(F)F)c2)C(=O)OC)c2cc(C(F)(F)F)ccc2N1C(=O)OC(C)C [Control 7, [2R,4S] 4-[(3,5-bis-trifluoromethyl-benzyl)-methoxycarbonyl-amino]-2-ethyl-6-trifluoromethyl-3,4-dihydro-2H-quinoline-1-carboxylic acid isopropyl ester]

AUC90 ([2]; Drug 3, area under the aqueous concentration versus time curve after 90 minutes): <90 µg·min/mL
AUC ([2]; Drug 3, time 0 min): <1 µg·min/mL
AUC ([2]; Drug 3, time 5 min): <5 µg·min/mL
AUC ([2]; Drug 3, time 10 min): <10 µg·min/mL
AUC ([2]; Drug 3, time 20 min): <20 µg·min/mL
AUC ([2]; Drug 3, time 40 min): <40 µg·min/mL
AUC ([2]; Drug 3, time 90 min): <90 µg·min/mL
AUC ([2]; Drug 3, time 1260 min): <1260 µg·min/mL
MDC90 ([2]; maximum concentration of Drug 3 in solution during the first 90 minutes): <1 µg/mL
Drug 3 Concentration ([2]; time 0 min): <1 µg/mL
Drug 3 Concentration ([2]; time 5 min): <1 µg/mL
Drug 3 Concentration ([2]; time 10 min): <1 µg/mL
Drug 3 Concentration ([2]; time 20 min): <1 µg/mL
Drug 3 Concentration ([2]; time 40 min): <1 µg/mL
Drug 3 Concentration ([2]; time 90 min): <1 µg/mL
Drug 3 Concentration ([2]; time 1260 min): <1 µg/mL
SMILES: O=C1Cc2cc(CCN3CCN(c4nsc5ccccc45)CC3)c(Cl)cc2N1 [Control 10]

AUC90 ([3]; Drug 1, area under the aqueous concentration versus time curve after 90 minutes): <45 µg·min/mL
AUC ([3]; Drug 1, time 0 min): 0 µg·min/mL
AUC ([3]; Drug 1, time 1 min): <1 µg·min/mL
AUC ([3]; Drug 1, time 3 min): <2 µg·min/mL
AUC ([3]; Drug 1, time 5 min): <3 µg·min/mL
AUC ([3]; Drug 1, time 10 min): <5 µg·min/mL
AUC ([3]; Drug 1, time 15 min): <8 µg·min/mL
AUC ([3]; Drug 1, time 20 min): <10 µg·min/mL
AUC ([3]; Drug 1, time 30 min): <15 µg·min/mL
AUC ([3]; Drug 1, time 45 min): <23 µg·min/mL
AUC ([3]; Drug 1, time 60 min): <30 µg·min/mL
AUC ([3]; Drug 1, time 90 min): <45 µg·min/mL
AUC ([3]; Drug 1, time 120 min): <60 µg·min/mL
AUC ([3]; Drug 1, time 1200 min): <600 µg·min/mL
MDC90 ([3]; maximum concentration of Drug 1 in solution during the first 90 minutes): <0.5 µg/mL
Drug 1 Concentration ([3]; time 0 min): <0.5 µg/mL
Drug 1 Concentration ([3]; time 1 min): <0.5 µg/mL
Drug 1 Concentration ([3]; time 3 min): <0.5 µg/mL
Drug 1 Concentration ([3]; time 5 min): <0.5 µg/mL
Drug 1 Concentration ([3]; time 10 min): <0.5 µg/mL
Drug 1 Concentration ([3]; time 15 min): <0.5 µg/mL
Drug 1 Concentration ([3]; time 20 min): <0.5 µg/mL
Drug 1 Concentration ([3]; time 30 min): <0.5 µg/mL
Drug 1 Concentration ([3]; time 45 min): <0.5 µg/mL
Drug 1 Concentration ([3]; time 60 min): <0.5 µg/mL
Drug 1 Concentration ([3]; time 90 min): <0.5 µg/mL
Drug 1 Concentration ([3]; time 120 min): <0.5 µg/mL
Drug 1 Concentration ([3]; time 1200 min): <0.5 µg/mL
SMILES: CCOC(=O)N1c2ccc(C(F)(F)F)cc2[C@@H](N(Cc2cc(C(F)(F)F)cc(C(F)(F)F)c2)C(=O)OC)C[C@H]1CC [Control 3, [2R,4S] 4-[(3,5-bis-trifluoromethyl-benzyl)-methoxycarbonyl-amino]-2-ethyl-6-trifluoromethyl-3,4-dihydro-2H-quinoline-1-carboxylic acid ethyl ester]
